From ChEMBL document CHEMBL5241076, “Natural products and analogs as preventive agents for metabolic syndrome via peroxisome proliferator-activated receptors: An overview” (Eur J Med Chem, 2021)

Assays:
[1] = molecular target: T1, Peroxisome proliferator-activated receptor gamma (Homo sapiens) (UniProt P37231); assay: Agonist activity at PPARgamma (unknown origin) at 0.1 to 25 uM relative to control; settings: dose 0.1-25 µM
T1 sequence (whole entry): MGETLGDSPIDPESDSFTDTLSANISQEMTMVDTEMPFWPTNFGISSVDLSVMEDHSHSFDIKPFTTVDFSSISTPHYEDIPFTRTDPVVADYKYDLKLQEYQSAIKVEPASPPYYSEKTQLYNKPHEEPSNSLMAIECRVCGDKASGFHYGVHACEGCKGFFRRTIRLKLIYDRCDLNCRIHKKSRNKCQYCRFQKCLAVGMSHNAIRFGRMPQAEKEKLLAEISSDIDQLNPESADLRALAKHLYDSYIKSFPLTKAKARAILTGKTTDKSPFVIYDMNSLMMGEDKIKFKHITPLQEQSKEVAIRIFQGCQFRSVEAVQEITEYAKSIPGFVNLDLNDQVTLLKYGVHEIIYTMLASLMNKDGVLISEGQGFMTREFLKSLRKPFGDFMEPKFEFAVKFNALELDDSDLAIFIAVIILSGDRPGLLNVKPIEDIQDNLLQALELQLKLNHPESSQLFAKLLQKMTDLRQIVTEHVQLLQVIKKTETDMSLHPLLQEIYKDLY

[2] = molecular target: T2, Peroxisome proliferator-activated receptor gamma (Homo sapiens, UniProt P37231); assay: Binding affinity to PPARgamma (unknown origin)
T2 sequence (P37231 whole entry): T1 sequence (whole entry)

[3] = molecular target: T3, Peroxisome proliferator-activated receptor delta (Homo sapiens, UniProt Q03181); assay: Agonist activity at PPARdelta (unknown origin)
T3 sequence (Q03181 whole entry): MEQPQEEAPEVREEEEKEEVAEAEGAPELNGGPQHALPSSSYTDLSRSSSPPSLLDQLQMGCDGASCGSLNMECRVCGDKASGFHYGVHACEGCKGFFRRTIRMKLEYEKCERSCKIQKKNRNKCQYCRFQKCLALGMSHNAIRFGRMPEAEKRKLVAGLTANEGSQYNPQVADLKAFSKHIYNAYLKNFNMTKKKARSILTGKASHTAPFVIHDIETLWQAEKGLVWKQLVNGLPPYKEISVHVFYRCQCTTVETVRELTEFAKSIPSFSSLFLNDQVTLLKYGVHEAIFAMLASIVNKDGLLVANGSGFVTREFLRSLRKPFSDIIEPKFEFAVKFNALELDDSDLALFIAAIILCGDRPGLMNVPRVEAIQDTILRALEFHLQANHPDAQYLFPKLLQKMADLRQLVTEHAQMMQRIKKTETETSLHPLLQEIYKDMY

[4] = molecular target: T4, Peroxisome proliferator-activated receptor alpha (Homo sapiens) (UniProt Q07869); assay: Agonist activity at PPARalpha (unknown origin) at 240 uM relative to control
T4 sequence (whole entry): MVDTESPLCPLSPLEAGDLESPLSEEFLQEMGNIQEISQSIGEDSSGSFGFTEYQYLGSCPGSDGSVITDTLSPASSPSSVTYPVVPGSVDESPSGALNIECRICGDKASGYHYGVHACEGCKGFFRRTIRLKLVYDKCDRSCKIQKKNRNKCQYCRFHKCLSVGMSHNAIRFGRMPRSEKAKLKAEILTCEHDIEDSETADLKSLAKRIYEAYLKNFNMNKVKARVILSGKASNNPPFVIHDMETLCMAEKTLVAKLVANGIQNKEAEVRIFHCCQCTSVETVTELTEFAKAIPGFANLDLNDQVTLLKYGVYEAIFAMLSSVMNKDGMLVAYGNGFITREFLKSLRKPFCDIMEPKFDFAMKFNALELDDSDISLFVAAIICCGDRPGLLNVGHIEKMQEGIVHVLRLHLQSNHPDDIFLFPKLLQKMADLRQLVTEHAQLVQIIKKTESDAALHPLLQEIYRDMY

[5] = molecular target: T1, Peroxisome proliferator-activated receptor gamma (Homo sapiens); assay: Agonist activity at PPARgamma (unknown origin) at 80 uM relative to control; settings: filed as agonist
[6] = Cmax in Syrian hamster at 100 mg/kg, po; assay type: ADME, organism-based, Mesocricetus auratus; parameters: dose 100 mg/kg, route po; settings: in vivo
[7] = Half life in Syrian hamster at 100 mg/kg, po; assay type: ADME, organism-based, Mesocricetus auratus; settings: in vivo
[8] = molecular target: T1, Peroxisome proliferator-activated receptor gamma (Homo sapiens); assay: Partial agonist activity at PPARgamma (unknown origin) relative to control
[9] = molecular target: T5, Peroxisome proliferator-activated receptor delta (Homo sapiens) (UniProt Q03181); assay: Agonist activity at PPARdelta (unknown origin) at 20 uM relative to control; settings: filed as agonist
T5 sequence (whole entry): T3 sequence (Q03181 whole entry)

[10] = molecular target: T4, Peroxisome proliferator-activated receptor alpha (Homo sapiens); assay: Agonist activity at PPARalpha (unknown origin) at 20 uM relative to control; settings: filed as agonist
[11] = molecular target: T6, Peroxisome proliferator-activated receptor alpha (Homo sapiens, UniProt Q07869); assay: Agonist activity at PPARalpha (unknown origin)
T6 sequence (Q07869 whole entry): T4 sequence (whole entry)

[12] = molecular target: T4, Peroxisome proliferator-activated receptor alpha (Homo sapiens); assay: Agonist activity at PPARalpha (unknown origin) relative to control; settings: filed as agonist
[13] = molecular target: T6, Peroxisome proliferator-activated receptor alpha; assay: Binding affinity to PPARalpha (unknown origin)
[14] = Cmax in mouse at 100 mg/kg, PO; assay type: ADME, organism-based; parameters: dose 100 mg/kg, route po; settings: in vivo
[15] = Half life in mouse at 100 mg/kg, po; assay type: ADME, organism-based; settings: in vivo

## CCCCCc1cc2c(c(O)c1C(=O)O)[C@@H]1C=C(C)CC[C@H]1C(C)(C)O2
[1]
  Activity: 17%

## Cc1coc2c1C(=O)C(=O)c1c-2ccc2c1CCCC2(C)C [TANSHINONE IIA]
[2]
  Ki: 2.56 µM

## C=CCc1ccc(O)c(-c2cc(CC=C)ccc2O)c1 [MAGNOLOL]
[3]
  EC50: 11.4 µM

## O=C1C[C@@H](c2ccc(O)cc2)Oc2cc(O)cc(O)c21
[4]
  Activity: 24%
[5]
  Activity: 57%

## COc1cc(/C=C/c2cc(/C=C/c3ccc(O)c(OC)c3)n(-c3ccc(Cl)c(Cl)c3)n2)ccc1O
[6]
  Cmax: 1390 ng/mL
[7]
  half-life: 168 min

## CC(C)=CCC[C@@](C)(O)[C@H]1CC[C@]2(C)[C@@H]1[C@H](O)C[C@@H]1[C@@]3(C)CC[C@H](O)C(C)(C)[C@@H]3[C@@H](O)C[C@]12C
[2]
  Ki: 54.2 µM

## COc1cc(/C=C/C(=O)CC(=O)/C=C/c2ccc(O)c(OC)c2)ccc1O [CURCUMIN]
[6]
  Cmax: 2.35 ng/mL

## O=c1c(O)c(-c2ccc(O)c(O)c2)oc2cc(O)cc(O)c12
[8]
  Activity: 20%

## O=c1c(O)c(-c2ccc(O)cc2)oc2cc(O)cc(O)c12 [KAEMPFEROL]
[3]
  EC50: 341 µM
[9]
  Activity: 155%
[10]
  Activity: 433%
[11]
  EC50: 15.5 µM
[8]; filed as partial agonist
  Activity: 45%

## C=C1CC/C=C(\C)CC[C@@H]2[C@@H]1CC2(C)C [BETA-CARYOPHYLLENE]
[11]
  EC50: 9.58 µM

## COc1ccc2cc3[n+](cc2c1OC)CCc1cc2c(cc1-3)OCO2 [BERBERINE]
[12]
  Activity: 102%
[13]
  Ki: 730 nM
[3]
  EC50: 14 µM
[11]
  EC50: 0.58 µM

## COc1cc(CCc2ccccc2)c(C(=O)O)c(O)c1CC=C(C)C [AMORFRUTIN A]
[14]
  Cmax: 42400 ng/mL
[15]
  half-life: 120 min
